According to patent US6277847A, “Herbicidal isoindolinonyl-and 3,4-dihydroisoquinolonyl-substituted heterocycles” (FMC Corporation, priority 2000, dated 2001):

How the values were obtained:
Type in all cases: in vivo
[1] = test system: soybean (Glycine max -- var. Winchester); test: pre-emergence herbicidal activity, soybean; conditions: 1 kg/Ha, about fourteen days, read-out: pre-emergence herbicidal activity (% control) SOY
Experimental: (§1) This example sets forth the methods of herbicidal testing conducted on the specific compounds set forth below. Specifically, the compounds referenced below were tested for pre- and post-emergence herbicidal activity using a variety of crops and weeds. The test plants include, but are not limited to, soybean (Glycine max -- var. Winchester), field corn (Zea mays var. Pioneer 3732), wheat (Triticum aestivum var. Lew), morningglory (Ipomea lacunosa or Ipomea hederacea), velvetleaf (Abutilon theophrasti), green foxtail (Setaria viridis), Johnsongrass (Sorghum halepense), blackgrass (Aloepecurus myosuroides), common chickweed (Stellaria media), and common cocklebur (Xanthium strumarium L.).
(§2) In the post-emergence test, seeds of the plant species named above were planted in flats containing the appropriate soil mixture where they were maintained to allow the seeds to germinate. When the plants in these flats reached the proper stage of growth, flats for the pre-emergence tests were planted in a like manner. The flats containing the post-emergence and pre-emergence test plant species were then sprayed with an appropriately concentrated water/acetone solution of test compound. Once treated the flats were maintained, along with untreated controls, for about fourteen days. All treated plants were then examined for phytotoxicity, which was expressed as percent control where 0 is no effect and 100 is complete control. Effective rates of application for the compounds of the present invention range from 0.001 to 3 kg/ha, more likely from […] to 1 Kg/ha.
(§3) Herbicidal activity data at selected application rates are in Tables 4 and 5. The test compounds are identified by numbers correspond to those in Table 1.
(§4) Rate of application of test compound is 1 kg/Ha
(§5) SOY is soybean, WHT is wheat, CRN is corn, ABUTH is velvetleaf, IPOSS is
(§6) morningglory, STEME is chickweed, XANPE is cocklebur, ALOMY is blackgrass, […]

[2] = test system: wheat (Triticum aestivum var. Lew); test: pre-emergence herbicidal activity, wheat; conditions: 1 kg/Ha, about fourteen days, read-out: pre-emergence herbicidal activity (% control) WHT
Experimental: as §1, §2, §3, §4, §5, §6

[3] = test system: field corn (Zea mays var. Pioneer 3732); test: pre-emergence herbicidal activity, corn; conditions: 1 kg/Ha, about fourteen days, read-out: pre-emergence herbicidal activity (% control) CRN
Experimental: as §1, §2, §3, §4, §5, §6

[4] = test system: velvetleaf (Abutilon theophrasti); test: pre-emergence herbicidal activity, velvetleaf; conditions: 1 kg/Ha, about fourteen days, read-out: pre-emergence herbicidal activity (% control) ABUTH
Experimental: as §1, §2, §3, §4, §5, §6

[5] = test system: morningglory (Ipomea lacunosa or Ipomea hederacea); test: pre-emergence herbicidal activity, morningglory; conditions: Ipomoea, 1 kg/Ha, about fourteen days, read-out: pre-emergence herbicidal activity (% control) IPOSS
Experimental: as §1, §2, §3, §4, §5, §6

[6] = test system: common chickweed (Stellaria media); test: pre-emergence herbicidal activity, chickweed; conditions: 1 kg/Ha, about fourteen days, read-out: pre-emergence herbicidal activity (% control) STEME
Experimental: as §1, §2, §3, §4, §5, §6

[7] = test system: common cocklebur (Xanthium strumarium L.); test: pre-emergence herbicidal activity, cocklebur; conditions: 1 kg/Ha, about fourteen days, read-out: pre-emergence herbicidal activity (% control) XANPE
Experimental: as §1, §2, §3, §4, §5, §6

[8] = test system: green foxtail (Setaria viridis); test: pre-emergence herbicidal activity, green foxtail; conditions: 1 kg/Ha, about fourteen days, read-out: pre-emergence herbicidal activity (% control) SETVI
Experimental: as §1, §2, §3, §4, §5, §6

[9] = test system: Johnsongrass (Sorghum halepense); test: pre-emergence herbicidal activity, johnsongrass; conditions: 1 kg/Ha, about fourteen days, read-out: pre-emergence herbicidal activity (% control) SORHA
Experimental: as §1, §2, §3, §4, §5, §6

[10] = test system: soybean (Glycine max -- var. Winchester); test: post-emergence herbicidal activity, soybean; conditions: 1 Kg/Ha, about fourteen days, read-out: post-emergence herbicidal activity (% control) SOY
Experimental: as §1, §2, §3, §5
(§7) morningglory, STEME is chickweed, XANPE is cocklebur, ALOMY is blackgrass,
(§8) Rate of application of test compound is 1 Kg/Ha. The definitions as shown under Table 4 apply to Table 5.

[11] = test system: wheat (Triticum aestivum var. Lew); test: post-emergence herbicidal activity, wheat; conditions: 1 Kg/Ha, about fourteen days, read-out: post-emergence herbicidal activity (% control) WHT
Experimental: as §1, §2, §3, §5, §7, §8

[12] = test system: field corn (Zea mays var. Pioneer 3732); test: post-emergence herbicidal activity, corn; conditions: 1 Kg/Ha, about fourteen days, read-out: post-emergence herbicidal activity (% control) CRN
Experimental: as §1, §2, §3, §5, §7, §8

[13] = test system: velvetleaf (Abutilon theophrasti); test: post-emergence herbicidal activity, velvetleaf; conditions: 1 Kg/Ha, about fourteen days, read-out: post-emergence herbicidal activity (% control) ABUTH
Experimental: as §1, §2, §3, §5, §7, §8

[14] = test system: morningglory (Ipomea lacunosa or Ipomea hederacea); test: post-emergence herbicidal activity, morningglory; conditions: Ipomoea, 1 Kg/Ha, about fourteen days, read-out: post-emergence herbicidal activity (% control) IPOSS
Experimental: as §1, §2, §3, §5, §7, §8

[15] = test system: common cocklebur (Xanthium strumarium L.); test: post-emergence herbicidal activity, cocklebur; conditions: 1 Kg/Ha, about fourteen days, read-out: post-emergence herbicidal activity (% control) XANPE
Experimental: as §1, §2, §3, §5, §7, §8

[16] = test system: green foxtail (Setaria viridis); test: post-emergence herbicidal activity, green foxtail; conditions: 1 Kg/Ha, about fourteen days, read-out: post-emergence herbicidal activity (% control) SETVI
Experimental: as §1, §2, §3, §5, §7, §8

[17] = test system: Johnsongrass (Sorghum halepense); test: post-emergence herbicidal activity, johnsongrass; conditions: 1 Kg/Ha, about fourteen days, read-out: post-emergence herbicidal activity (% control) SORHA
Experimental: as §1, §2, §3, §5, §7, §8

[18] = test system: blackgrass (Aloepecurus myosuroides); test: pre-emergence herbicidal activity, blackgrass; conditions: Alopecurus myosuroides, 1 kg/Ha, about fourteen days, read-out: pre-emergence herbicidal activity (% control) ALOMY
Experimental: as §1, §2, §3, §4, §5, §6

[19] = test system: common chickweed (Stellaria media); test: post-emergence herbicidal activity, chickweed; conditions: 1 Kg/Ha, about fourteen days, read-out: post-emergence herbicidal activity (% control) STEME
Experimental: as §1, §2, §3, §5, §7, §8

Measured: activity at 1000 g/ha

C=CCON1Cc2c(-n3c(=O)cc(C(F)(F)F)n(C)c3=O)ccc(Cl)c2C1=O [Compound 17]
90%: [12] | [14]
not listed: [18] | [19]
100%: all other assays above

Cn1c(C(F)(F)F)cc(=O)n(-c2ccc(Cl)c3c2CN(O)C3=O)c1=O [Compound 18]
70%: [12] | [16]
95%: [1] | [15]
50%: [11]
80%: [10]
65%: [17]
60%: [2]
not listed: [6] | [18] | [19]
100%: all other assays above

COc1ccc(CN2Cc3c(-n4c(=O)cc(C(F)(F)F)n(C)c4=O)ccc(Cl)c3C2=O)cc1 [Compound 25]
40%: [7] | [11]
50%: [1]
90%: [12] | [14]
75%: [18] | [17]
60%: [2] | [15]
95%: [3]
80%: [10] | [19]
70%: [5]
not listed: [9]
100%: all other assays above

COC(=O)CCN1Cc2c(-n3c(=O)cc(C(F)(F)F)n(C)c3=O)ccc(Cl)c2C1=O [Compound 26]
95%: [12]
50%: [2]
80%: [3] | [5] | [18] | [8] | [14] | [17]
70%: [11]
not listed: [9]
100%: all other assays above

Cn1c(C(F)(F)F)cc(=O)n(-c2ccc(Cl)c3c2CN(CC(F)(F)F)C3=O)c1=O [Compound 28]
not listed: [9]
100%: all other assays above

Cn1c(C(F)(F)F)cc(=O)n(-c2ccc(Cl)c3c2CN(CC2CC2)C3=O)c1=O [Compound 29]
not listed: [9]
100%: all other assays above

Cn1c(C(F)(F)F)cc(=O)n(-c2ccc(Cl)c3c2CN(CC#N)C3=O)c1=O [Compound 30]
60%: [11]
95%: [12]
not listed: [9]
100%: all other assays above

COCN1Cc2c(-n3c(=O)cc(C(F)(F)F)n(C)c3=O)ccc(Cl)c2C1=O [Compound 31]
not listed: [9]
100%: all other assays above

CC(C)N1Cc2c(-n3c(=O)cc(C(F)(F)F)n(N)c3=O)ccc(Cl)c2C1=O [Compound 70]
not listed: [9]
100%: all other assays above
